Assay results: patent US20040121947A1, “Compounds which inhibit beta-secretase activity and methods of use thereof” (Oklahoma Medical Research Foundation, priority 2000, published 2004)
Like-named read-outs stand apart in the source and are kept apart here. *1 amine or outer side, *2 acyl side, *3 side chain or, on linkers, in order; H or OH if unused. Where a SMILES comes first, the peptide text is derived from it. [ ]: non-standard residue; d: D form. The star is where a group is joined. LeuΨ(S-CHOHCH2)Ala = CC(C)C[C@H](N[*:1])[C@@H](O)C[C@@H](C)C(=O)[*:2]; 5FAM = O=C1OC2(c3ccc(O)cc3Oc3cc(O)ccc32)c2ccc(C(=O)*)cc21; Ahx = NCCCCCC(=O)O

Key:
[1] = Transport of conjugated inhibitors to mouse blood, spleen and brain after i.p. injection
Experimental: Whole blood cells (with EDTA as anti-coagulant in the syringe or in the capillary tube) were isolated from anesthetized animals from the orbital artery or by heart puncture and diluted 1:10 in PBS. Prior to the harvest of other tissue samples, animals were anesthetized and perfused with 150 ml of neutral-buffered 10% formalin. Spleens were harvested intact. Brains were harvested and cerebral hemispheres separated, one for sectioning by cryostat, the other for single cell isolation for flow cytometry.
Sections of the brain hemispheres were obtained by soaking in OCT/PBS at 4° C. for overnight, recovered and frozen in Histo Prep Media.
To collect single cell suspensions, spleens and brain hemispheres were homogenized through a 30 μm screen and directly analyzed by flow cytometric analysis.

[2] = tested on: HEK293 cells; assay: Penetration of fluorescently labelled inhibitors into cultured cells (flow cytometry); assay type: cell-based, human; settings: incubation 10 to 30 minutes
Experimental: Fluorescently labelled inhibitors or fluorescein (Fs) as a control were incubated with suspended cells for time intervals ranging from 10 to 30 minutes. Cells were fixed with paraformaldehyde and permeabilized in 0.2% Tween-20 in PBS for 6 minutes and incubated with anti-fluorescein-Alexa™ 488 antibody (Molecular Probes, Eugene, Oreg.) in order to enhance detection of intracellular inhibitor present from penetration. Flow cytometry (FACSCalibur™) and confocal fluorescent microscopy (Leica TCS NT™) were performed at the Flow and Image Cytometry Lab, OUHSC.

[3] = target: T1, memapsin 2 (Homo sapiens, UniProt P56817); assay: Inhibition of memapsin 2 proteolytic activity, fluorogenic substrate FS-2; assay type: biochemical
T1 construct: pET-11 vector-derived residues 1-15 of promemapsin 2-T1 (N, cleaved yes); made in house; host or cells: E. coli
How it was run: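 Spontaneously activated memapsin 2 (80 nM final) equilibrated with inhibitor (about 10 nM–10 μM) in 0.1 M NaOAc pH 4.0 with 10% DMSO for 20 min at 37 °C, with fluorogenic substrate FS-2. Ki converted from Ki apparent using substrate concentration and Km.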

[4] = tested on: plasma Aβ40; assay: Inhibition of Aβ production in transgenic mice (plasma Aβ40 ELISA); assay type: in vivo, tg2576 mice; settings: for Effect on plasma Aβ40: i.p. injection, 2 hours following injection
Experimental: Six-month-old tg2576 mice (n=21) were injected intraperitoneally (i.p.) 200 μg of conjugate CPI-3 or with control DMSO, in 200 μl of PBS. Plasma were collected from anesthetized animals by orbital bleed or sephaneous vein into heparinized capillary tubes and clarified by centrifugation. Plasma Aβ 1-40 levels were determined by capture ELISA (BioSource International, Camarillo, Calif.). The peptide analogue of CPI-3, with an amide group instead of the hydroxyethylene isostere was synthesized by SynPep (Camarillo, Calif.).
Since the conjugate inhibitors can cross the blood brain barrier in vivo, enter cells both in vitro and in vivo, and inhibit Aβ production in vitro, inhibition of Aβ production in vivo was determined. Tg2576 mice, expressing the Swedish mutation of the human amyloid precursor protein (including SEQ ID NO: 11) (Hsiao, K., et al., Science 274:99-102 (1996), the teachings of which are incorporated hereby in their entirety) were injected with CPI-3, which is identical in amino acid sequence to CPI-2 and lacks the amino-terminal fluorescein (FAM) derivative. Blood was collected from tg2576 animals at time intervals following injection of 400 μg of CPI-3.
At ages up to 9 months, plasma Aβ in the tg2576 mice serves as a reliable marker for brain Aβ production as a result of memapsin 2 activity (Kawarabayashi, T., et al., J Neurosci. 21:372-381 (2001)). Nine tg2576 mice were injected intraperitoneally with various doses of inhibitor CPI-3.

[5] = target: T2, memapsin 1 (Homo sapiens, UniProt Q9Y5Z0); assay: Inhibition of memapsin 1 proteolytic activity, fluorogenic substrate FS-2; assay type: biochemical; settings: enzyme concentration equals the compound concentration
T2 construct: pET-11 vector-derived residues 1-14 of promemapsin 1-T1 (N, cleaved yes); made in house; host or cells: E. coli
T2 sequence (Q9Y5Z0 63-466 limits assumed): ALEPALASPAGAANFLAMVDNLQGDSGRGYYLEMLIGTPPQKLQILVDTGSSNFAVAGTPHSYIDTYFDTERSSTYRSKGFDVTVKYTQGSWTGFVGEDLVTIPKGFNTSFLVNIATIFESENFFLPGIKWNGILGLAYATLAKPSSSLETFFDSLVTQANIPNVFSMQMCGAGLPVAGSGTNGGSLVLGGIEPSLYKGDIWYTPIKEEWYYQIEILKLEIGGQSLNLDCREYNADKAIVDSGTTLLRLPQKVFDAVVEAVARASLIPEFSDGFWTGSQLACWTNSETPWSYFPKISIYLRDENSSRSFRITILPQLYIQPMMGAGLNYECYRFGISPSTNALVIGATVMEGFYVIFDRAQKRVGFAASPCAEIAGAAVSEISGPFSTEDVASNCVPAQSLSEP
Experimental: Vi/Vo depicts the ratio of initial cleavage velocities of the substrate FS-2 (Ermolieff, et al., Biochemistry […]:12450-12456 (2000)) by memapsin 1 or memapsin 2 in the absence (Vo) or presence (Vi) of a compound of the invention. […] The Vi/Vo values depicted in Table 1 were determined at conditions under which the enzyme and inhibitor concentrations were equal (e.g., about 80 nM, 100 nM).
The relationship of Ki (independent of substrate concentration) to Kiapp is a function of substrate concentration in the assay and the Km for cleavage of the substrate by either memapsin 1 or memapsin 2 by the relationship:
An aliquot of the inhibitor of known concentration in DMSO was diluted into 1.8 ml 0.1 M NaOAc, pH 4.0. DMSO and added to a final concentration of 10% (v/v), and memapsin 2 (final concentration of 80 nM), followed by a 20 minute equilibration at 37° C. Compounds were evaluated for the ability to inhibit memapsin 1 and memapsin 2 at concentrations between about 10 nM and about 10 μm of inhibitor.
The relationship of Ki (independent of substrate concentration) to Kiapp is a function of substrate concentration in the assay and the Km for cleavage of the substrate by either memapsin 1 or memapsin 2 by the relationship: […]

[6] = tested on: plasma Aβ40; assay: Inhibition of Aβ production in transgenic mouse model of Alzheimer's disease (plasma Aβ40 ELISA); assay type: in vivo, APP/F mice
Experimental: Compounds MMI-138, MMI-165, and MMI-185 were synthesized as described above. Compounds were dissolved in 1 ml of dimethyl sulfoxide (DMSO) to a final concentration of about 1 mg/ml for MMI-165 and MMI-185, and about 10 mg/ml for MMI-138. […] Inhibitors were diluted into PBS or H2O immediately prior to injection, as described below. Inhibition constants were determined by methods described by Ermolieff, et al. (Biochem. 39:12450-12456 (2000), the teachings of which are incorporated hereby in their entirety).
The tg2576 strain of mice was obtained from Taconic (Germantown, N.Y.). The APP/F strain of mice were obtained by mating the tg2576 mice with the FVB/N strain. To determine presence of the Swedish APP gene in APP/F mice, the DNA from mice was isolated according to the Qiagen Dneasy™ Tissue Kit. PCR (Qiagen kit and protocol) was used to amplify the fragment of DNA corresponding to the human Swedish APP gene. The following primers were used: […]
At the age of three months, animals of the Alzheimer's disease mouse model APP/F were injected intraperitoneally (i.p.) with about 163 nanomoles of either compounds MMI-138 (molecular weight 674 g/mole; 110 μg per animal, n=2), MMI-165 (molecular weight 626 g/mole; 102 μg per animal, n=2), or MMI-185 (molecular weight 686; 112 μg per animal, n=2).
Heparinized capillary tubes collected blood samples from anesthetized animals from either the retro-orbital sinus or from the saphenous vein at specified intervals following injection. The blood samples were transferred to sterile 1.5 mL microcentrifuge tubes, centrifuged at 5,100 RPM for 10 minutes to recover the plasma (supernatant), and stored at −70° C. until analysis for the Aβ40 by Enzyme Linked-Immuno-Sorbent Assay (ELISA).
A sandwich ELISA (BioSource International, Camarillo, Calif.) was used to determine the levels of Aβ40 in plasma samples. The ELISA utilizes a primary antibody specific for human Aβ for the immobilization of the amino-terminus and a detection antibody specific for the carboxy-terminal amino acids of Aβ40. A conjugated secondary antibody was used to detect the ternary complex, using a stabilized chromogen substrate, quantifiable following addition of 1 M HCl, with the optical densities measured at 450 nm. The procedures were followed according to the BioSource protocol. Optical densities were converted to pg/ml quantities of Aβ40 using a linear regression of the optical densities of standards obtained from the commercial kit, to their known concentrations.

[7] = four injections at 2 hour intervals

T1 sequence (P56817 41-454 limits assumed): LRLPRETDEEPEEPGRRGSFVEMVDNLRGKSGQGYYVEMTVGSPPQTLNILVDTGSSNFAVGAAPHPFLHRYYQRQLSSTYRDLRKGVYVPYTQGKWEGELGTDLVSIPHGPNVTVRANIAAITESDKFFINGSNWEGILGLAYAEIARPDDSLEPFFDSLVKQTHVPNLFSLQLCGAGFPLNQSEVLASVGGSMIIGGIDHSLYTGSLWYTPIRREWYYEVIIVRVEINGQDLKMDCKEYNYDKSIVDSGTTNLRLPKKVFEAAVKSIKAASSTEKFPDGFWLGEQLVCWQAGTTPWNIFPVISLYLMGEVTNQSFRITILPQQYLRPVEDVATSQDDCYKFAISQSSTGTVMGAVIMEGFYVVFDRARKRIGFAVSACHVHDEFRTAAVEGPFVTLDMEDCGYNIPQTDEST

CC(C)C[C@H](NC(=O)[C@H](CC(N)=O)NC(=O)[C@@H](NC(=O)[C@H](CCC(=O)O)NC(=O)CCCCCNC(=O)c1ccc2c(c1)C(=O)OC21c2ccc(O)cc2Oc2cc(O)ccc21)C(C)C)[C@@H](O)C[C@@H](C)C(=O)N[C@@H](C)C(=O)N[C@@H](CCC(=O)O)C(=O)N[C@@H](Cc1ccccc1)C(=O)NCC(=O)N[C@@H](Cc1ccc(O)cc1)C(=O)NCC(=O)N[C@@H](CCCNC(=N)N)C(=O)N[C@@H](CCCCN)C(=O)N[C@@H](CCCCN)C(=O)N[C@@H](CCCNC(=N)N)C(=O)N[C@@H](CCCNC(=N)N)C(=O)N[C@@H](CCC(N)=O)C(=O)N[C@@H](CCCNC(=N)N)C(=O)N[C@@H](CCCNC(=N)N)C(=O)N[C@@H](CCCNC(=N)N)C(=O)O [CPI-1] ({5FAM-Ahx}-EVN[LeuΨ(S-CHOHCH2)Ala]AEFGYGRKKRRQRRR-OH)
Uptake into brain tissue ([1]; 8 hours after i.p. injection, flow cytometry or confocal microscopy): penetration of the fluorescent conjugate into all brain cells
Splenocytes with fluorescence peak shift ([1]; splenectomy 2 hours after i.p. injection): ~100%
Blood cells with strong fluorescence signal ([1]; whole blood 20 minutes after i.p. injection, 0.3 nmol): approximately 100%
Penetration of cultured cells (intracellular fluorescence) [2]: readily penetrated cultured cells within minutes
Ki ([3]; memapsin 2, carrier peptide-inhibitor conjugates, read-out: Ki apparent): 39 nM

CC(C)C[C@H](NC(=O)[C@@H](N)CCC(=O)O)C(=O)N[C@@H](CC(=O)O)C(=O)N[C@@H](CC(C)C)[C@@H](O)C[C@@H](C)C(=O)N[C@H](C(=O)N[C@@H](CCC(=O)O)C(=O)N[C@@H](Cc1ccccc1)C(=O)NCC(=O)NCC(=O)N[C@H](CCCNC(=N)N)C(=O)N[C@H](CCCNC(=N)N)C(=O)N[C@H](CCCNC(=N)N)C(=O)N[C@H](CCCNC(=N)N)C(=O)N[C@H](CCCNC(=N)N)C(=O)N[C@H](CCCNC(=N)N)C(=O)N[C@H](CCCNC(=N)N)C(=O)N[C@H](CCCNC(=N)N)C(=O)N[C@H](CCCNC(=N)N)C(=O)O)C(C)C [CPI-3] (H-ELD[LeuΨ(S-CHOHCH2)Ala]VEFGG[dR][dR][dR][dR][dR][dR][dR][dR][dR]-OH)
Plasma Aβ40 level relative to initial value ([4]; 2 hours following i.p. injection): about one third
Aβ level, average low, % of the average initial value [4, 7]: 29%
Inhibition of plasma Aβ [4, 7]: about 80%
Effect on plasma Aβ40 [4]: significant dose-dependent reduction
Half-life of inhibition of plasma Aβ40 ([4]; single i.p. injection): 3 h
Time of return of plasma Aβ40 level to the initial value ([4]; single i.p. injection): ≤ 8 h

CSCC[C@H](NC(=O)OCn1nc(C)cc1C)C(=O)N[C@@H](CC(C)C)[C@@H](O)C[C@@H](C)C(=O)N[C@H](C(=O)NC(C)C)C(C)C [MMI-165]
% Inhibition Mep1 [5]: 27%
Sustainment of inhibition of plasma Aβ40 ([6]; over a 24-h period): remained nearly constant
Blood brain barrier penetration (from reduction of plasma Aβ) ([6]; transgenic mice): penetrated the blood brain barrier
Decrease in plasma Aβ40 ([6]; within 30 minutes following i.p. injection of about 163 nanomoles): 46%
Ki ([3]; Table 9, read-out: Ki apparent Mep2): 24.5 nM
% Inhibition Mep2 ([3]; enzyme concentration equals the compound concentration): 60%
Ki ([3]; memapsin 2, apparent Ki in presence of substrate FS-2, read-out: Ki app): 24.5 nM
Ki ([3]; memapsin 2, independent of substrate, converted from Ki apparent, read-out: Ki): 15.3 nM
Ki ([3]; memapsin 2, read-out: Ki): 15.3 nM
% Inh (M1/M2) ([3]; ratio of % inhibition memapsin 1 / memapsin 2, 1 or less = greater inhibition of memapsin 2): 0.45
Vi/Vo ([3]; ratio of initial cleavage velocities of FS-2 with/without compound, enzyme and inhibitor concentrations equal (e.g., about 80 nM, 100 nM)): 0.4

CC(C)C[C@H](NC(=O)[C@@H](N)CCC(=O)O)C(=O)N[C@@H](CC(=O)O)C(=O)N[C@@H](CC(C)C)[C@@H](O)C[C@@H](C)C(=O)N[C@H](C(=O)N[C@@H](CCC(=O)O)C(=O)N[C@@H](Cc1ccccc1)C(=O)O)C(C)C [OM00-3, ELDL*AVEF] (H-ELD[LeuΨ(S-CHOHCH2)Ala]VEF-OH)
Decrease in plasma Aβ40 ([6]; 2 hours following injection of 163 nmoles): 16%
Inhibition of Aβ40 production in vivo ([6]; plasma Aβ40): failed to inhibit Aβ40 production
Effect on plasma Aβ40 [4]: did not reduce plasma Aβ40 levels
